Experimental data taken from publication PMC9056950, “Synthesis and biochemical evaluation of cephalosporin analogues equipped with chemical tethers” (RSC Advances, 2020).
≈ marks a conversion by molar mass, not a printed value.

Assays:
[1] = system: T1, S. aureus; parameters: species or system Staphylococcus aureus NCTC 6571; broth growth inhibition, OD600, fitted MIC from dose curve, TSB, 37 C; settings: 16 h; inhibitor
T1 construct: NCTC 6571
Procedure: Stock solutions of each compound were prepared in 50% DMSO/water at ×100 the final concentration. In a 96-well plate, 2 μL of the test compounds were added to each well. Each plate included the positive control (750 μg mL^−1 chloramphenicol), the negative control (50% DMSO/water) and media only wells. To each test well was then added 198 μL of the required bacteria stock (OD 0.05). E. coli assays were carried out using LB broth, S. aureus were carried out using tryptic soy broth (TSB). Plates were incubated at 37 °C and the OD600 was measured (Epoch 2 Microplate Spectrophotometer, BioTek) every 30 min over a 17 h period. Tests were carried out in triplicate, the background absorbance was removed using reference wells, and the averages were determined. Dose curves were plotting using the OD600 after 16 h growth vs. compound concentration. MICs were defined as the minimum concentration of compound at which no significant growth was observed after 16 h incubation. MIC values were determined using GraphPad Prism (version 8.3.0). The activity of 1–12 was investigated with growth assays against Staphylococcus aureus (NCTC 6571). S. aureus is a virulent Gram-positive pathogen that can cause a wide range of infections in humans.[29,30] Each compound was tested at 400–6 μM concentrations, with lower concentrations tested as required.

[2] = system: T2, S. aureus (NCTC 6571); test: microbe, parasite or virus in culture; parameters: minimum bactericidal concentration 50 on agar plates; settings: Staphylococcus aureus, NCTC6571; read-out: MBC50 S. aureus (NCTC 6571)
T2 construct: NCTC 6571

[3] = biological target: T3, PBP3 (Escherichia coli, UniProt P0AD68); test: biochemical; parameters: Thermal shift assay, Protein Thermal Shift dye, 3 uM E. coli PBP3, change in melting temperature; settings: read-out: Average DTm/°C
T3 construct: gene ftsI
T3 sequence (P0AD68 44-588): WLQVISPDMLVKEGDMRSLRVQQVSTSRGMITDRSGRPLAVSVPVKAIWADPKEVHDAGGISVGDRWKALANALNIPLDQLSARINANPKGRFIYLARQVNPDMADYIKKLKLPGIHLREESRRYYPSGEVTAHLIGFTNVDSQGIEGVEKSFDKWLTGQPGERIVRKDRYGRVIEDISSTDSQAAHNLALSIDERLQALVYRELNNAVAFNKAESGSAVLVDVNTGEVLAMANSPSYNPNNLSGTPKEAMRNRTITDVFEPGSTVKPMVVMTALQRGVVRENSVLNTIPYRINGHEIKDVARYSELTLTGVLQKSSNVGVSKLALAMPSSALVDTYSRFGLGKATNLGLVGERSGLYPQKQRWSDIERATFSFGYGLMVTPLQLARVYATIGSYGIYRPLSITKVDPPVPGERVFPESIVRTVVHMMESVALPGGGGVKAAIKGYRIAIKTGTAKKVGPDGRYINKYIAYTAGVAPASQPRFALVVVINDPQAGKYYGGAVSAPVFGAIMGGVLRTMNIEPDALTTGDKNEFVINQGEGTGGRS
Procedure: The thermal shift assay was carried out using the Protein Thermal Shift™ assay kit (Applied Biosystems). 3 μM of purified E. coli PBP3 was incubated with the β-lactam analogues at 300 μM concentration in a mixture containing the Protein Thermal Shift™ Dye. The samples were then heated in a StepOnePlus™ Real-Time PCR System from 25 to 95 °C at a rate of 1 °C min^−1. Tests were carried out in triplicate and the averages plotted as the negative first derivative vs. temperature. Reference wells, i.e. solutions consisting only of only PBP3 with dye, PBP3 only, and dye only, were used as controls. Melting temperature (Tm) values were determined with and without each compound, and the change in melting temperature (ΔTm) was obtained, Fig. 2. The thermal shift assay with PBP4 was carried out using the protocol described for PBP3, with the follow deriviatisation: 500 nM of purified Bacillus subtilis PBP4 was incubated with 50 μM of the β-lactam analogues. A thermal shift assay was used to investigate the binding of the cephalexin analogues to the therapeutic target, PBP, in vitro. This assay provides a fast and inexpensive method of detecting a ligand binding to a protein of interest. Briefly, the protein is gradually heated in the presence of a fluorescent dye that binds non-specifically to the hydrophobic surfaces. […] A change in the melting temperature (Tm) when the protein is heated in the presence of a ligand, indicates a protein–ligand interaction. […] The PBPs can be divided into two main categories: high molecular mass (HMM) and low molecular mass (LMM).[13] PBP3 was chosen as a representative HMM PBP, and PBP4 as a representative LMM PBP. Cephalexin (1) has been previously reported to show good binding affinities for both PBP3 and PBP4.[14] Penicillin (11) and cefpodoxime (12) were included as positive controls. A truncated version of the ftsI gene formed of residues W44-S588, encoding only the soluble domain, was amplified from E. coli BW25113. The resulting construct was inserted into the vector pBADnLIC2005,[40] introducing an N-terminal deca-histidine tag when expressed. The resulting vector was transformed into E. coli MC1061 for expression. Cultures for protein expression were grown in 1 L of Luria–Bertani (LB) broth at 37 °C on an orbital shaker. Expression was induced by addition of 0.01% L-arabinose during mid-log phase of growth. Cultures were further incubated for 16 h at 20 °C, then the cells were harvested by centrifugation. Cell pellets were resuspended in 50 mM KPi pH 7.8, 200 mM NaCl, 10 mM imidazole, 20% glycerol with 1 mM [compound left out] followed by sonication. The lysate was clarified by centrifugation before loading onto a HisTrap HF column (GE Healthcare). To remove any pre-bound ligands, refolding purification was performed by initially washing with the protein unfolding buffer [2 M guanidine HCl, 50 mM KPi (pH 7.8), 200 mM NaCl, 20% glycerol, and 20 mM imidazole] and then performing a gradient wash to the protein refolding buffer [50 mM KPi (pH 7.8), 200 mM NaCl, 20% glycerol, and 20 mM imidazole] before the elution of the protein using the elution buffer [50 mM KPi (pH 7.8), 200 mM NaCl, 20% glycerol, and 500 mM imidazole]. The eluted protein was buffer-exchanged to the buffer 50 mM KPi (pH 7.8), 200 mM NaCl using a HisTrap Desalting (GE Healthcare) column.

| Compound | MIC (S. aureus, best-fit) [1] | MBC [2] | ΔTm at 300 µM [3] |
| --- | --- | --- | --- |
| CC1=C(C(=O)O)N2C(=O)[C@@H](NC(=O)[C@H](N)c3ccccc3)[C@H]2SC1 [compound 1, cephalexin] | 1.89e-05 M (≈ 6.57 µg/mL) | 400 µM (≈ 139 µg/mL) | 1.61 °C |
| CC1=C(C(=O)O)N2C(=O)[C@@H](NC(=O)[C@H](NC(=O)COCC(=O)NCCOCCOCCOCCOCCNC(=O)CCCCCN3C(=O)C=CC3=O)c3ccccc3)[C@H]2SC1 [compound 2, (6R,7R)-7-((R)-30-(2,5-Dioxo-2,5-dihydro-1H-pyrrol-1-yl)-4,8,25-trioxo-2-phenyl-6,12,15,18,21-pentaoxa-3,9,24-triazatriacontanamido)-3-methyl-8-oxo-5-thia-1-azabicyclo[4.2.0]oct-2-ene-2-carboxylic acid] | 9.255e-05 M (≈ 81 µg/mL) | 200 µM (≈ 175 µg/mL) | 4.72 °C |
| CC1=C(C(=O)O)N2C(=O)[C@@H](NC(=O)[C@H](NC(=O)CCCCCN3C(=O)C=CC3=O)c3ccccc3)[C@H]2SC1 [compound 3, (6R,7R)-7-((R)-2-(6-(2,5-dioxo-2,5-dihyrdo-1H-pyrrol-1-yl)hexanamido)-2-phenylacetamido)-3-methyl-8-oxo-5-thia-1-azabicyclo[4.2.0]oct-2-ene-2-carboxylic acid] | ~ 5.580e-005 M | 200 µM (≈ 108 µg/mL) | 3 °C |
| C#CCCC(=O)N[C@@H](C(=O)N[C@@H]1C(=O)N2C(C(=O)O)=C(C)CS[C@H]12)c1ccccc1 [compound 4, (6R,7R)-3-Methyl-8-oxo-7-[(2R)-2-(pent-4-ynamido)-2-phenylacetamido]-5-thia-1-azabicyclo[4.2.0]oct-2-ene-2-carboxylic acid] | ~ 3.501e-005 M | 50 µM (≈ 21.4 µg/mL) | 3.01 °C |
| CC1=C(C(=O)O)N2C(=O)[C@@H](NC(=O)[C@H](NC(=O)CCCCC3CCSS3)c3ccccc3)[C@H]2SC1 (stereo partly drawn) [compound 5, (6R,7R)-7-[(2R)-2-[5-(1,2-Dithiolan-3-yl)pentanamido]-2-phenylacetamido]-3-methyl-8-oxo-5-thia-1-azabicyclo[4.2.0]oct-2-ene-2-carboxylic acid] | 2.493e-05 M (≈ 13.4 µg/mL) | 50 µM (≈ 26.8 µg/mL) | 3.01 °C |
| CC1=C(C(=O)O)N2C(=O)[C@@H](NC(=O)[C@H](NC(=O)CCCC(=O)ON3C(=O)CCC3=O)c3ccccc3)[C@H]2SC1 [compound 6, (6R,7R)-7-[(2R)-2-{5-[(2,5-Dioxopyrrolidin-1-yl)oxy]-5-oxopentanamido}-2-phenylacetamido]-3-methyl-8-oxo-5-thia-1-azabicyclo[4.2.0]oct-2-ene-2-carboxylic acid] | 8.29e-05 M (≈ 46.3 µg/mL) | 200 µM (≈ 112 µg/mL) | 3.21 °C |
| CC1=C(C(=O)O)N2C(=O)[C@@H](NC(=O)[C@H](NC(=O)CCCC(=O)O)c3ccccc3)[C@H]2SC1 [compound 7, (6R,7R)-7-[(2R)-2-(4-Carboxybutanamido)-2-phenylacetamido]-3-methyl-8-oxo-5-thia-1-azabicyclo[4.2.0]oct-2-ene-2-carboxylic acid] | 8.144e-05 M (≈ 37.6 µg/mL) | 200 µM (≈ 92.3 µg/mL) | 3.6 °C |
| CC(=O)N[C@@H](C(=O)N[C@@H]1C(=O)N2C(C(=O)O)=C(C)CS[C@H]12)c1ccccc1 [compound 8, (6R,7R)-7-[(2R)-2-Acetamido-2-phenylacetamido]-3-methyl-8-oxo-5-thia-1-azabicyclo[4.2.0]oct-2-ene-2-carboxylic acid] | ~ 5.897e-005 M | 200 µM (≈ 77.9 µg/mL) | 3.01 °C |
| CC1=C(C(=O)O)N2C(=O)[C@@H](NC(=O)[C@H](NC(=O)OC(C)(C)C)c3ccccc3)[C@H]2SC1 [compound 9, (6R,7R)-7-[(2R)-2-{[(Tert-butoxy)carbonyl]amino}-2-phenylacetamido]-3-methyl-8-oxo-5-thia-1-azabicyclo[4.2.0]oct-2-ene-2-carboxylic acid] | 1.097e-05 M (≈ 4.91 µg/mL) | 50 µM (≈ 22.4 µg/mL) | 1.61 °C |
| CC1=C(C(=O)O)N2C(=O)[C@@H](NC(=O)[C@H](NC(=O)CCCCN)c3ccccc3)[C@H]2SC1 [compound 10, (6R,7R)-7-[(2R)-2-(5-Aminopentanamido)-2-phenylacetamido]-3-methyl-8-oxo-5-thia-1-azabicyclo[4.2.0]oct-2-ene-2-carboxylic acid] | 5.135e-05 M (≈ 22.9 µg/mL) | 50 µM (≈ 22.3 µg/mL) | 2.81 °C |
| COCC1=C(C(=O)O)N2C(=O)[C@@H](NC(=O)/C(=N\OC)c3csc(N)n3)[C@H]2SC1 [compound 12, cefpodoxime] | 2.094e-05 M (≈ 8.95 µg/mL) | 100 µM (≈ 42.7 µg/mL) | 4.42 °C |
